Experimental data: ChEMBL document CHEMBL1201862, “PubChem BioAssay data set” (2004)
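Five concentrations, 48 hours, 96-well plates. The concentration for 50% growth inhibition is given as GI50.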 Activity calls are given as the source filed them. Rule as the data show it: active = GI50 up to about 1.1 µM and inactive = higher.

Legend:
Experiment in all cases: growth of human tumour cells (NCI), 48 h
XF498 = tested on: XF498
HOP-92 = tested on: HOP-92
RXF 393 = tested on: RXF 393
SK-MEL-28 = tested on: SK-MEL-28
SK-MEL-2 = tested on: SK-MEL-2
DMS-114 = tested on: DMS-114
SW-620 = tested on: SW-620
UACC-62 = tested on: UACC-62
SF-539 = tested on: SF-539
NCI-H226 = tested on: NCI-H226
IGROV-1 = tested on: IGROV-1
NCI-H460 = tested on: NCI-H460
TK-10 = tested on: TK-10
HCT-116 = tested on: HCT-116
SN12C = tested on: SN12C
NCI-H23 = tested on: NCI-H23
SNB-75 = tested on: SNB-75
HT-29 = tested on: HT-29
NCI/ADR-RES = tested on: NCI/ADR-RES
Malme-3M = tested on: Malme-3M

| SMILES | GI50 (XF498) | GI50 (HOP-92) | GI50 (RXF 393) | GI50 (SK-MEL-28) | GI50 (SK-MEL-2) | GI50 (DMS-114) | GI50 (SW-620) | GI50 (UACC-62) | GI50 (SF-539) | GI50 (NCI-H226) | GI50 (IGROV-1) | GI50 (NCI-H460) | GI50 (TK-10) | GI50 (HCT-116) | GI50 (SN12C) | GI50 (NCI-H23) | GI50 (SNB-75) | GI50 (HT-29) | GI50 (NCI/ADR-RES) | GI50 (Malme-3M) |
| --- | --- | --- | --- | --- | --- | --- | --- | --- | --- | --- | --- | --- | --- | --- | --- | --- | --- | --- | --- | --- |
| O=C(c1ccccc1)c1ccc2c(c1)N=C(c1ccc(Cl)c(Cl)c1)CC(c1ccc3ccccc3c1)N2 (stereo unspecified) | > 100 µM (inactive) | > 100 µM (inactive) | > 100 µM (inactive) | > 100 µM (inactive) | > 100 µM (inactive) | > 100 µM (inactive) | > 100 µM (inactive) | > 100 µM (inactive) | > 100 µM (inactive) | > 100 µM (inactive) | > 100 µM (inactive) | > 100 µM (inactive) | > 100 µM (inactive) | > 100 µM (inactive) | > 100 µM (inactive) | > 100 µM (inactive) | > 100 µM (inactive) | > 100 µM (inactive) | – | – |
| COc1nc2ccc(Cl)c(C(O)c3ccccc3)c2nc1OC (stereo unspecified) | – | 12.9 µM (inactive) | 14.3 µM (inactive) | 35.5 µM (inactive) | 18.5 µM (inactive) | – | 26.7 µM (inactive) | 17.1 µM (inactive) | 18.3 µM (inactive) | 16.3 µM (inactive) | 24.8 µM (inactive) | 25.8 µM (inactive) | 37.2 µM (inactive) | 16.2 µM (inactive) | 19.7 µM (inactive) | 17.2 µM (inactive) | 33 µM (inactive) | 29.9 µM (inactive) | 20.3 µM (inactive) | 32.9 µM (inactive) |
| S=C1NN=C2C(=C3CCCC4C5CCCCC5N2C34)N1 (stereo unspecified) | – | > 100 µM (inactive) | – | > 100 µM (inactive) | – | – | > 100 µM (inactive) | – | – | 0.678 µM (active) | > 100 µM (inactive) | – | > 100 µM (inactive) | – | – | > 100 µM (inactive) | – | – | > 100 µM (inactive) | > 100 µM (inactive) |
| CCN1CC2(CO)CCC(OC)C34C5CC6C(OC)CC(O)(C5C6OC)C(O)(C(OC)C23)C14 (stereo unspecified) | > 360 µM (inactive) | 168 µM (inactive) | > 375 µM (inactive) | > 375 µM (inactive) | > 59.4 µM (inactive) | > 375 µM (inactive) | > 375 µM (inactive) | > 375 µM (inactive) | > 375 µM (inactive) | > 375 µM (inactive) | > 375 µM (inactive) | > 375 µM (inactive) | – | > 375 µM (inactive) | > 375 µM (inactive) | > 375 µM (inactive) | > 362 µM (inactive) | > 375 µM (inactive) | > 375 µM (inactive) | > 375 µM (inactive) |
| O=C(O)CCC(NC(=O)c1ccc(Nc2nc3ccc(C(F)(F)F)cc3nc2-c2ccccc2)cc1)C(=O)O (stereo unspecified) | 98.4 µM (inactive) | > 46.6 µM (inactive) | > 100 µM (inactive) | > 100 µM (inactive) | > 100 µM (inactive) | > 100 µM (inactive) | > 100 µM (inactive) | > 100 µM (inactive) | > 100 µM (inactive) | > 100 µM (inactive) | > 100 µM (inactive) | > 100 µM (inactive) | – | > 100 µM (inactive) | > 100 µM (inactive) | > 100 µM (inactive) | > 100 µM (inactive) | > 100 µM (inactive) | > 100 µM (inactive) | > 100 µM (inactive) |
| C=CCCC1(C)CCCNC1=S (stereo unspecified) | > 100 µM (inactive) | > 100 µM (inactive) | > 100 µM (inactive) | > 100 µM (inactive) | > 100 µM (inactive) | > 100 µM (inactive) | > 100 µM (inactive) | > 100 µM (inactive) | > 100 µM (inactive) | > 100 µM (inactive) | > 100 µM (inactive) | > 100 µM (inactive) | > 100 µM (inactive) | > 100 µM (inactive) | > 100 µM (inactive) | > 100 µM (inactive) | > 100 µM (inactive) | > 100 µM (inactive) | – | > 100 µM (inactive) |
| c1ccc(Sc2nc(Sc3ccccc3)nc(Sc3ccccc3)n2)cc1 | – | – | 61.7 µM (inactive) | 43.7 µM (inactive) | 37.2 µM (inactive) | – | – | > 100 µM (inactive) | 31.7 µM (inactive) | 25.9 µM (inactive) | – | 47.6 µM (inactive) | 44.6 µM (inactive) | 60.1 µM (inactive) | > 100 µM (inactive) | > 100 µM (inactive) | – | 38.9 µM (inactive) | – | > 100 µM (inactive) |
| O=CNc1cccc2c3c([nH]c12)CCCCCC3 | > 77.1 µM (inactive) | 48 µM (inactive) | > 75.7 µM (inactive) | > 100 µM (inactive) | > 100 µM (inactive) | > 81.5 µM (inactive) | > 100 µM (inactive) | > 100 µM (inactive) | > 100 µM (inactive) | > 100 µM (inactive) | 83.2 µM (inactive) | > 100 µM (inactive) | – | > 100 µM (inactive) | > 100 µM (inactive) | > 100 µM (inactive) | > 93.1 µM (inactive) | > 69.3 µM (inactive) | > 100 µM (inactive) | > 85.5 µM (inactive) |
| CCC12CCC[C@@]13C=C[C@H](O3)C(C)(C)C2=O (stereo partly specified) | – | – | > 100 µM (inactive) | – | > 100 µM (inactive) | > 100 µM (inactive) | > 100 µM (inactive) | > 100 µM (inactive) | > 100 µM (inactive) | > 100 µM (inactive) | > 100 µM (inactive) | > 100 µM (inactive) | > 100 µM (inactive) | > 100 µM (inactive) | > 100 µM (inactive) | > 100 µM (inactive) | > 100 µM (inactive) | > 100 µM (inactive) | – | > 100 µM (inactive) |
| Nc1nc(=O)n(C2OC(CO)C(O)C2O)cc1F (stereo unspecified) | > 100 µM (inactive) | 0.0755 µM (active) | 43.5 µM (inactive) | – | > 100 µM (inactive) | 0.0462 µM (active) | 22.2 µM (inactive) | 1.36 µM (inactive) | 37.4 µM (inactive) | > 100 µM (inactive) | > 100 µM (inactive) | 0.102 µM (active) | – | 0.495 µM (active) | 3.28 µM (inactive) | 0.191 µM (active) | – | 5.65 µM (inactive) | 0.76 µM (active) | – |
| O[C@H]1[C@H](O)[C@@H](O)CN2CC[C@H](O)[C@H]12 [CASTANOSPERMINE] | > 100 µM (inactive) | > 100 µM (inactive) | > 100 µM (inactive) | > 100 µM (inactive) | 99.3 µM (inactive) | > 100 µM (inactive) | > 100 µM (inactive) | > 100 µM (inactive) | > 100 µM (inactive) | > 100 µM (inactive) | > 100 µM (inactive) | > 100 µM (inactive) | – | > 100 µM (inactive) | > 100 µM (inactive) | > 100 µM (inactive) | > 100 µM (inactive) | > 100 µM (inactive) | > 100 µM (inactive) | > 90.6 µM (inactive) |
| COc1ccc(-c2oc3cc(O)cc(O)c3c(=O)c2OC)cc1 [ERMANIN] | – | 3.23 µM (inactive) | – | 27 µM (inactive) | – | – | 31.2 µM (inactive) | 21.5 µM (inactive) | – | – | 28.3 µM (inactive) | 25.4 µM (inactive) | 39.9 µM (inactive) | 39.9 µM (inactive) | – | – | – | 24.7 µM (inactive) | 27.2 µM (inactive) | 38.8 µM (inactive) |
